Earlier results in patent US20250295673A1, “TREATMENT OF BREAST CANCER” (priority 2024, published 2025).
“Also recorded” adds a separate entry of the source.

Assays:
[1] = test system: FSH (Follicle Stimulating Hormone) and LH (Leutinizing Hormone) release; conditions: nandrolone alone
SHBG = target: T1, SHBG (Homo sapiens, UniProt P04278); conditions: releases testosterone, nandrolone, oxandrolone from SHBG
T1 sequence (P04278 30-402): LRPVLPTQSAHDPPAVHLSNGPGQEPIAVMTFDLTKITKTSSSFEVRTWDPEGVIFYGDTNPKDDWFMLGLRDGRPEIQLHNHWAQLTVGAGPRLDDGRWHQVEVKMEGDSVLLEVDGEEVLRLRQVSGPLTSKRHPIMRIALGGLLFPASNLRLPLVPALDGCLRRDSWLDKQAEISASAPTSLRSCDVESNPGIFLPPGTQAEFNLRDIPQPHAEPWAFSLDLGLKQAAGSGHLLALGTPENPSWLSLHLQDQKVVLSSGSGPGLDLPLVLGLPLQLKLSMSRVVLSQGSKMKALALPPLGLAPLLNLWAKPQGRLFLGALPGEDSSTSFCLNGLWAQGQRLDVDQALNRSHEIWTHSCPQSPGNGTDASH

brain oxytocin = conditions: topically applied vaginally

C[C@]12CC[C@H]3[C@@H](CCC4=CC(=O)CC[C@@H]43)[C@@H]1CC[C@@H]2O [nandrolone]
effect on FSH and LH release from the pituitary [1]: suppresses

C[C@]12Cc3c[nH]nc3C[C@@H]1CC[C@@H]1[C@@H]2CC[C@@]2(C)[C@H]1CC[C@]2(C)O [stanozolol]
net increase of androgens by release from SHBG (SHBG): four-fold
effect on brain oxytocin (brain oxytocin): increases brain oxytocin; also recorded: raises a user's oxytocin levels
